Numbers after ± are expanded uncertainties.
What was measured:
[1] = 100 kPa, Liquid; for mass density: Vibrating tube method
[2] = xn = mol fraction of the nth substance listed; details: 100 kPa, Liquid, x2 = 0; for mass density: Vibrating tube method

SMILES | mass density ([1]; 278.15 K) [kg/m3] | mass density ([1]; 283.15 K) [kg/m3] | speed of sound ([1]; 318.15 K, Pulse-echo method) [m/s] | mass density ([1]; 323.15 K) [kg/m3] | mass density ([1]; 328.15 K) [kg/m3] | mass density ([1]; 333.15 K) [kg/m3] | mass density ([2]; 278.15 K) [kg/m3] | mass density ([2]; 283.15 K) [kg/m3] | speed of sound ([2]; 318.15 K, Pulse-echo method) [m/s] | mass density ([2]; 323.15 K) [kg/m3] | mass density ([2]; 328.15 K) [kg/m3] | mass density ([2]; 333.15 K) [kg/m3]
O [water] | 999.965 ± 0.11 | 999.698 ± 0.11 | 1536.7 ± 0.99 | 988.027 ± 0.11 | 985.682 ± 0.11 | 983.186 ± 0.11 |  |  |  |  |  | 
O [water] + OCCOCCOCCOCCO |  |  |  |  |  |  | 999.965 ± 0.11 | 999.698 ± 0.11 | 1536.7 ± 0.99 | 988.027 ± 0.11 | 985.682 ± 0.11 | 983.186 ± 0.11
